Reference: EP0106486A2, “Improvements in or relating to novel octahydrobenz(f)isoquinolines” (ELI LILLY AND COMPANY, priority 1982, dated 1984)
Structures can show the parent of a compound that is named as a salt. Where two headings read alike, the source gives them in different places.

Test system: Cox standard strain albino male mice
Experiment: mouse writhing assay (acetic acid-induced writhing)
Type: in vivo
Conditions: dose required to inhibit induced writhing by fifty percent, 5 mice per group
Source text: The analgesic activity of a number of compounds provided by this invention has been determined in the standard rat-tail jerk assay and the mouse writhing assay. Writhing, characterized by contraction of the abdominal musculature, extension of the hind- legs, and rotation of the trunk, was induced in Cox standard strain albino male mice. The mice, weighing 18-24 grams, were fasted overnight and given the test compound by gavage in an acacia suspension (5%) sixty minutes before writhing was induced by the intraperitoneal administration of acetic acid (0.60 percent). Each treatment group consisted of 5 mice. The total number of writhes for the treatment group was determined during a 10-minute observation starting 5 minutes after acetic acid administration. […] The results in the mouse writhing assay are presented as the effective dose in mg./kg. of the tested compound required to inhibit induced writhing in the test animals by fifty percent (ED50). Results are presented in Column II for both subcutaneous (s.c.) and oral (p.o.) administration of the test compound as compared to the reference compound meperidine.

[1] = 1 h, oral (p.o.) administration, acacia suspension (5%), sixty minutes before i.p. acetic acid (0.60 percent), read-out: Mouse Writhing ED50 p.o.
[2] = sc, subcutaneous (s.c.) administration, writhing induced by i.p. acetic acid (0.60 percent), read-out: Mouse Writhing ED50 s.c.

Row | Compound | ED50 [1] | ED50 [2]
1 | CCC[C@]12CCN(C)C[C@H]1CCc1ccc(OC)cc12.Cl (relative stereo) [Example 2, cis-1,2,3,4,4a,5,6,10b-octahydro-3-methyl-9-methoxy-10b-propylbenz[f]isoquinoline hydrochloride] | 11 mg/kg | 10 mg/kg
2 | CN1CC[C@]2(C)c3cc(O)ccc3CC[C@@H]2C1 (relative stereo) [Example 3, cis-1,2,3,4,4a,5,6,10b-octahydro-3,10b-di-methylbenz[f]isoquinolin-9-ol] | 7.2 mg/kg | 2.3 mg/kg
3 | CCC[C@]12CCNC[C@H]1CCc1ccc(OC)cc12.Cl (relative stereo) [Example 6, cis-1,2,3,4,4a,5,6,10b-octahydro-9-methoxy-10b-propylbenz[f]isoquinoline hydrochloride] | > 80 mg/kg | > 80 mg/kg
4 | C=CCN1CC[C@]2(C)c3cc(O)ccc3CC[C@@H]2C1 (relative stereo) [Example 8, cis-1,2,3,4,4a,5,6,10b-octahydro-3-(2-propenyl)-10b-methylbenz[f]isoquinolin-9-ol] | > 80 mg/kg | 15 mg/kg
5 | C[C@]12CCN(CC3CC3)C[C@H]1CCc1ccc(O)cc12 (relative stereo) [Example 9, cis-1,2,3,4,4a,5,6,10b-octahydro-3-(cyclopropylmethyl)-10b-methylbenz[f]isoquinolin-9-ol] | > 80 mg/kg | 32 mg/kg
6 | C[C@@]12CCN(CCc3ccccc3)C[C@@H]1CCc1ccc(O)cc12 (relative stereo) [Example 10, cis-1,2,3,4,4a,5,6,10b-octahydro-3-(2-phenylethyl)-10b-methylbenz[f]isoquinolin-9-ol] | 38.2 mg/kg | 5.2 mg/kg
7 | CCC[C@]12CCNC[C@H]1CCc1ccc(O)cc12 (relative stereo) [Example 11, cis-1,2,3,4,4a,5,6,10b-octahydro-10b-propylbenz[f]isoquinolin-9-ol] | > 80 mg/kg | 62 mg/kg
8 | C=CCN1CC[C@]2(CCC)c3cc(O)ccc3CC[C@@H]2C1 (relative stereo) [Example 12, cis-1,2,3,4,4a,5,6,10b-octahydro-3-(2-propenyl)-10b-propylbenz[f]isoquinolin-9-ol] | 45 mg/kg | 12 mg/kg
9 | CCC[C@]12CCN(CC3CC3)C[C@H]1CCc1ccc(O)cc12 (relative stereo) [Example 13, cis-1,2,3,4,4a,5,6,10b-octahydro-3-cyclopropylmethyl-10b-propylbenz[f]isoquinolin-9-ol] | 73 mg/kg | 34 mg/kg
10 | CCC[C@]12CCN(CCc3ccccc3)C[C@H]1CCc1ccc(O)cc12 (relative stereo) [Example 14, cis-1,2,3,4,4a,5,6,10b-octahydro-3-(2-phenylethyl)-10b-propylbenz[f]isoquinolin-9-ol] | > 80 mg/kg | 78 mg/kg
11 | COc1ccc2c(c1)[C@]1(C)CCN(C)C[C@@H]1CC2 [Example 1, cis-1,2,3,4,4a,5,6,lOb-octahydro-3,lOb-dimethyl-9-methoxybenz[f]isoquinoline hydrochloride] | 15 mg/kg | 10 mg/kg
12 | CCC[C@@]12CCN(C)C[C@@H]1CCc1ccc(O)cc12 [Example 4, cis-1,2,3,4,4a,5,6,1Ob-octahydro-3-methyl-10b-propylbenz[f]isoquinolin-9-ol hydrochloride] | 13 mg/kg | 4.5 mg/kg
13 | COc1ccc2c(c1)[C@]1(C)CCNC[C@@H]1CC2 [Example 5, cis-1,2,3,4,4a,5,6,10b-octahydro-9-methoxy-LOb-methylbenz[f]isoquinoline hydrochloride] | 80 mg/kg | 62 mg/kg
14 | C[C@@]12CCNC[C@@H]1CCc1ccc(O)cc12 [Example 7, cis-l,2,3,4,4a,5,6,10b-octahydro-10b-methylbenz[f]isoquinolin-9-ol] | > 80 mg/kg | 80 mg/kg
15 | CCOC(=O)C1(c2ccccc2)CCN(C)CC1 [Meperidine, reference compound] | 21 mg/kg | 2.8 mg/kg
